Laboratory results published in patent publication US20180284095A1, “BIOMARKERS ASSOCIATED WITH LSD1 INHIBITORS AND USES THEREOF” (Oryzon Genomics, S.A., priority 2015, published 2018).

What was measured:
[1] = tested on: C57BL/6 mice; assay: Experimental Autoimmune Encephalomyelitis (EAE) model, MOG35-55; format: in vivo, mouse
Procedure: In particular, the murine EAE model as described herein, using MOG35-55 and C57BL/6 mice strain, is considered a validated preclinical model of the chronic progressive form of MS.
To induce chronic EAE by active immunization, C57BL/6 mice were immunized s.c. with 100 μg of myelin oligodendrocyte glycoprotein MOG35-55 emulsified in complete Freund's adjuvant (CFA) containing 4 mg/ml Mycobacterium tuberculosis H37 RA. Mice also received i.p. injections of 200 ng of pertussis toxin on days 0 and 2.
Mice were scored daily for signs of EAE according to the following clinical scoring system: 0, no clinical signs; 0.5, partial loss of tail tonicity; 1, complete loss of tail tonicity; 2, flaccid tail and abnormal gait; 3, hind leg paralysis; 4, hind leg paralysis with hind body paresis; 5, hind and fore leg paralysis; and 6, death.

[2] = tested on: SAMP8 mice; assay: Platelet levels (hemogram) in SAMP8 mice; format: in vivo, mouse
Procedure: It is known that LSD1 is implicated in normal hematopoiesis (SprDssel et al, Leukemia 2012, 26(9)2039-51). […] The mice were sacrificed and blood was collected in sodium citrate-containing tubes for hemogram analysis. Platelets levels were determined in a standard hematology analyzer (Abacus Junior Vet, from Diatron) following the manufacturer's instructions.

[3] = tested on: S100A9; assay: Microarray gene expression, hippocampus of SAMP8 mice (Example 3); format: in vivo, mouse; settings: for Hybridization signal sample_Cy5 S100A9 / log2 (sample/control) S100A9: SAMP8 female pool
Procedure: (§1) Total RNA was extracted from samples using the RNeasy extraction kit (Qiagen). The quality and concentration of the RNA was analyzed using the Agilent 2100 bioanalyzer and NanoDrop™ ND-1000 (Thermo Scientific). Samples with RNA integrity number (RIN)<6.0 were discarded. Total RNA (0.5 μg) amplification and labelling with Cy3 or Cy5 was carried out using the Eberwein mRNA amplification procedure (Van Gelder et al, Proc Natl Acad Sci USA 1990, 87:1663-1667) employing the MessageAmp™ aRNA amplification kit from Ambion (Applied Biosystems) following the manufacturer's instructions with minor modifications. As hybridization controls, plant mRNAs were transcribed from a plasmid containing the Zea mays Xet (xyloglucan endo-transglycosylase) cDNA and from a plasmid containing the Zea mays Zmmyb42 cDNA, independently prepared Cy3 and Cy5 labelled aRNA from these two RNAs using the Eberwein mRNA amplification procedure (as disclosed in Cerdà et al, Gen Comp Endocrinol 2008, 156:470-481).
(§2) The Cy3- and Cy5-labelled cRNAs and spikes were combined and hybridized to the microarray described in Example 2.6 for 17 h at 60° C. using Agilent's gaskets G2534-60002, G2534A hybridization chambers and DNA Hybridization Oven G2545A, according to the manufacturer's instructions. More specifically, equal amounts of Cy3 and Cy5 labeled Xet aRNA as well as equal amounts of Cy3 and Cy5 labeled Zmmyb42 aRNA were spiked into each mixture hybridized to the array. Arrays were washed and raw data were obtained using Agilent's DNA Microarray Scanner G2505B and Feature Extraction software (v10.1). The raw fluorescence intensity data were processed using applicant's proprietary software, and consists in the following operations:
(§3) Data normalization was carried out by an improved version of the nonlinear Q-splines normalization method (Workman et al., Genome Biol 2002, 3(9):research0048.1-0048.16). Normalization results were presented graphically as MA plots, as first described by Dudoit et al (Dudoit et al, Statistica Sinica, 2002, 12:111-139). Each point corresponds to a probe of the DNA array. M values (vertical axis) are the log-differential expression ratios. A values (horizontal axis) are the log-intensities of the spots. M and A are calculated from the Cy5 and Cy3 intensity values as of each spot. The DNA Array data is normalized using an improved version of non-linear Q-Splines normalization described by Workman et al., Genome Biol 2002, 3(9):research0048.1-0048.16. This process is useful to correct the deviation of the M values from the statistical assumption that most of the spots have M=0 in MA plots. The method allows the adjustment of all M values to form a cloud centered at M=0 in all intensity ranges. The data used to calculate the normalization fitting curve is the totality of the raw measurement dataset, excluding the signals for the probes for the spiked-in plant RNA controls and negative controls. In order to be able to normalize properly the data among all the experiments, the probe-set must include an important group of genes that should have no change (M=0) in the experiment. The normalization function is then applied to all the data, including controls.
(§4) Normalized and log-transformed data were used to calculate log 2 (sample/control) and Fold Change (FC) values. No background subtraction was applied to the signal intensity values during data processing, permitting robust selection of differentially expressed genes with low expression levels at the cost of potential sub-estimation of change when intensity levels are close to the array background level.
(§5) The technical replicate analysis is the statistical processing of the microarray data. Replicates were calculated to measure oligo replicates on an array or between replicates of experiments on different arrays (i.e. hybridization of the same sample). […]

[4] = tested on: S100A8; assay: as above; format: in vivo, mouse; settings: for Hybridization signal sample_Cy5 S100A8 / log2 (sample/control) S100A8: SAMP8 female pool
Procedure: as §1, §2, §3, §4, §5

[5] = Oral availability and blood-brain barrier crossing (statement)
[6] = SAMP8 females, treatment vs vehicle

Substance: (−) 5-((((trans)-2-(4-(benzyloxy)phenyl)cyclopropyl)amino)methyl)-1,3,4-oxadiazol-2-amine [Compound 1]
- development of EAE, disease incidence and severity measured by daily clinical score ([1]; 1 or 3 mg/kg oral once a day, days 12-16 and 19-23 postimmunization): greatly inhibited the development of EAE
- mice almost completely recovered ([1]; 40 days after disease onset): 30%
- duration of protective effect ([1]; after cessation of the treatment): maintained for a long-period of time after cessation of the treatment
- mice displaying mild symptoms ([1]; group treated with 1 or 3 mg/kg oral): 40-70%
- platelet levels ([2]; SAMP8, HD (3.2 mg/kg/day)): significant reduction of platelet levels
- platelet levels ([2]; SAMP8, LD (0.96 mg/kg/day)): no significant reduction of platelet levels
- platelet levels ([2]; SAMP8 males, 0.96 mg/kg/day, 16 weeks (4 months), vs vehicle-treated SAMP8, 0.96 mg/kg/day): no statistically significant effects
- platelet levels ([2]; SAMP8 males, 0.96 mg/kg/day, 16 weeks (4 months), vs vehicle-treated SAMP8, listed as compound 1, 0.96 mg/kg/day): no changes in the platelet blood count
- Hybridization signal sample_Cy5 S100A9 ([3]; HD 3.2 mg/kg/day): 73.2282
- log2 (sample/control) S100A9 ([3]; HD 3.2 mg/kg/day vs SAMP8 VEH): −0.7647
- Hybridization signal sample_Cy5 S100A9 ([3]; LD 0.96 mg/kg/day): 66.4843
- log2 (sample/control) S100A9 ([3]; LD 0.96 mg/kg/day vs SAMP8 VEH): −0.8381
- S100A9 expression (microarray) [3, 6]: down-regulated
- Hybridization signal sample_Cy5 S100A8 ([4]; HD 3.2 mg/kg/day): 77.0786
- log2 (sample/control) S100A8 ([4]; HD 3.2 mg/kg/day vs SAMP8 VEH): −0.1813
- Hybridization signal sample_Cy5 S100A8 ([4]; LD 0.96 mg/kg/day): 70.7119
- log2 (sample/control) S100A8 ([4]; LD 0.96 mg/kg/day vs SAMP8 VEH): −0.2255
- S100A8 expression (microarray) [4, 6]: down-regulated
- blood-brain barrier crossing [5]: cross the blood-brain barrier
- oral availability [5]: orally available
